Test results: US9955691B2, “Macrocyclic picolinamides as fungicides” (DOW AGROSCIENCES LLC, priority 2014, dated 2018)
Where two headings read alike, the source gives them in different places.

Assays:
Puccinia triticina = test: Fungicidal activity: Wheat Brown Rust (PUCCRT); type: in vivo; settings: for pest or weed control at 100 µg/mL: High Volume (100 ppm); for pest or weed control at 121.5 g/ha: Low Volume (121.5 g/H)
In short: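 Percent control of brown rust was derived from 0-100% severity on treated versus untreated first leaves. Yuma wheat seedlings were spray-treated to run-off (acetone/water, Triton X-100) and inoculated with P. triticina spores before or after treatment, then held overnight in dark dew at 22° C and moved to a 24° C greenhouse.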

[1] = system: Mycosphaerella graminicola; Anamorph: Septoria tritici; test: Fungicidal activity: Leaf Blotch of Wheat (SEPTTR); type: in vivo; settings: Zymoseptoria tritici; for pest or weed control at 121.5 g/ha: Low Volume (121.5 g/H)
In short: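 Compounds were dissolved in acetone, diluted with nine volumes of water containing 110 ppm Triton X-100, and sprayed to run-off on first-leaf Yuma wheat seedlings inoculated with Septoria tritici spores before or after treatment. Plants were held in a dew chamber, then a 20° C. greenhouse. Percent control was derived from disease severity relative to untreated plants.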

[2] = 24 h, 1 Day Protectant, read-out: PUCCRT 1 DP disease control
[3] = 72 h, 3 Day Curative, read-out: PUCCRT 3 DC disease control
[4] = 24 h, 1 Day Protectant, wheat leaf blotch, read-out: SEPTTR 1 DP disease control
[5] = 72 h, 3 Day Curative, wheat leaf blotch, read-out: SEPTTR 3 DC disease control
[6] = 24 h, High Volume (100 ppm), 1 Day Protectant, wheat leaf blotch, read-out: SEPTTR 1 DP disease control
[7] = 72 h, High Volume (100 ppm), 3 Day Curative, wheat leaf blotch, read-out: SEPTTR 3 DC disease control

| SMILES | melting point | pest or weed control at 100 µg/mL (Puccinia triticina; [2]) | pest or weed control at 100 µg/mL (Puccinia triticina; [3]) | pest or weed control at 100 µg/mL ([1]; 24 h, read-out: SEPTTR 1 DP disease control) | pest or weed control at 100 µg/mL ([1]; 72 h, read-out: SEPTTR 3 DC disease control) | pest or weed control at 121.5 g/ha (Puccinia triticina; [2]) | pest or weed control at 121.5 g/ha (Puccinia triticina; [3]) | pest or weed control at 121.5 g/ha [1, 4] | pest or weed control at 121.5 g/ha [1, 5] | pest or weed control at 100 µg/mL [1, 6] | pest or weed control at 100 µg/mL [1, 7] |
| --- | --- | --- | --- | --- | --- | --- | --- | --- | --- | --- | --- |
| COc1ccnc(C(=O)N[C@H]2COC[C@H](Cc3ccccc3)[C@@H](Cc3ccccc3)[C@H](C)OC2=O)c1O [Cmpd. 112, N-((3S,7R,8R,9S)-7,8-dibenzyl-9-methyl-2-oxo-1,5-dioxonan-3-yl)-3-hydroxy-4-methoxypicolinamide] | 69 to 72 °C | < 70% | < 70% | < 70% | < 70% | – | – | – | – | – | – |
| COc1cccc(C[C@H]2COC[C@H](NC(=O)c3nccc(OC)c3O)C(=O)O[C@@H](C)[C@@H]2Cc2cccc(OC)c2)c1 [compound 124] | 62 to 65 °C | > 70% | < 70% | – | – | – | – | – | – | < 70% | < 70% |
| COc1ccnc(C(=O)N[C@H]2COC[C@H](CCCc3ccccc3)[C@@H](CCc3ccccc3)[C@H](C)OC2=O)c1OCOC(C)=O [compound 67] | 37 to 40 °C | – | – | – | – | < 70% | < 70% | < 70% | < 70% | – | – |
| COc1ccnc(C(=O)N[C@H]2COC[C@H](Cc3ccc(Cl)cc3)[C@@H](Cc3ccc(OC(F)(F)F)cc3)[C@H](C)OC2=O)c1OCOC(C)=O [compound 58] | 158 to 161 °C | – | – | – | – | > 70% | < 70% | > 70% | > 70% | – | – |
| COc1ccnc(C(=O)N[C@H]2COC[C@H](Cc3ccc(C(F)(F)F)cc3)[C@@H](CC(C)C)[C@H](C)OC2=O)c1OCOC(C)=O [compound 71] | 54 to 59 °C | – | – | – | – | > 70% | > 70% | > 70% | > 70% | – | – |
| COc1ccnc(C(=O)N[C@H]2COC[C@H](CCCc3ccccc3)[C@@H](CCc3ccccc3)[C@H](C)OC2=O)c1O [compound 139] | 48 to 52 °C | > 70% | < 70% | – | – | – | – | – | – | < 70% | < 70% |
| COc1ccnc(C(=O)N[C@H]2COC[C@H](Cc3ccc(Cl)cc3)[C@@H](Cc3ccc(OC(F)(F)F)cc3)[C@H](C)OC2=O)c1OC(C)=O [compound 59] | 80 to 85 °C | – | – | – | – | < 70% | < 70% | < 70% | < 70% | – | – |
| COc1ccnc(C(=O)N[C@H]2COC[C@H](CCc3ccccc3)[C@@H](CCc3ccccc3)[C@H](C)OC2=O)c1OCOC(C)=O [compound 4] | 42 to 47 °C | > 70% | > 70% | – | – | > 70% | < 70% | > 70% | > 70% | > 70% | > 70% |
| COc1ccnc(C(=O)N[C@H]2COC[C@H](CC3CCCCC3)[C@@H](CC3CCCCC3)[C@H](C)OC2=O)c1OCOC(C)=O [compound 10] | 50 to 56 °C | > 70% | > 70% | – | – | – | – | – | – | > 70% | < 70% |
| COc1ccnc(C(=O)N[C@H]2COC[C@H](CCC(C)C)[C@@H](C3CCCC3)[C@H](C)OC2=O)c1OCOC(C)=O [compound 93] | 47 to 53 °C | – | – | – | – | > 70% | < 70% | > 70% | < 70% | – | – |
| COc1ccnc(C(=O)N[C@H]2COC[C@H](Cc3ccccc3)[C@@H](c3ccccc3)[C@H](C)OC2=O)c1OC(C)=O [compound 54] | 99 to 103 °C | – | – | – | – | > 70% | > 70% | > 70% | > 70% | – | – |
| COc1ccnc(C(=O)N[C@H]2COC[C@H](CCC(C)C)[C@@H](C3CCCC3)[C@H](C)OC2=O)c1OC(=O)C(C)C [compound 92, 2-(((3S,7R,8R,9S)-8-cyclopentyl-7-isopentyl-9-methyl-2-oxo-1,5-dioxonan-3-yl)carbamoyl)-4-methoxypyridin-3-yl isobutyrate] | 47 to 51 °C | – | – | – | – | > 70% | > 70% | > 70% | > 70% | – | – |
| COc1ccnc(C(=O)N[C@H]2COC[C@H](Cc3ccc(Cl)cc3)[C@@H](C3CCCC3)[C@H](C)OC2=O)c1O [compound 149] | 80 to 84 °C | > 70% | > 70% | – | – | – | – | – | – | > 70% | > 70% |
| COc1ccnc(C(=O)N[C@H]2COC[C@H](Cc3ccc(Cl)cc3)[C@@H](C3CCCC3)[C@H](C)OC2=O)c1OCOC(=O)C(C)C [compound 89] | 54 to 58 °C | – | – | – | – | > 70% | < 70% | > 70% | > 70% | – | – |

More lines, main results first:

| melting point | SMILES | pest or weed control at 100 µg/mL (Puccinia triticina; [2]) | pest or weed control at 100 µg/mL (Puccinia triticina; [3]) | pest or weed control at 100 µg/mL ([1]; 24 h, read-out: SEPTTR 1 DP disease control) | pest or weed control at 100 µg/mL ([1]; 72 h, read-out: SEPTTR 3 DC disease control) | pest or weed control at 121.5 g/ha (Puccinia triticina; [2]) | pest or weed control at 121.5 g/ha (Puccinia triticina; [3]) | pest or weed control at 121.5 g/ha [1, 4] | pest or weed control at 121.5 g/ha [1, 5] | pest or weed control at 100 µg/mL [1, 6] | pest or weed control at 100 µg/mL [1, 7] |
| --- | --- | --- | --- | --- | --- | --- | --- | --- | --- | --- | --- |
| 85 to 89 °C | COc1ccnc(C(=O)N[C@H]2COC[C@H](Cc3ccc(Cl)cc3)[C@@H](C3CCCC3)[C@H](C)OC2=O)c1OC(C)=O [compound 86] | – | – | – | – | > 70% | > 70% | > 70% | > 70% | – | – |
| 57 to 60 °C | COc1ccnc(C(=O)N[C@H]2COC[C@H](Cc3ccc(C(F)(F)F)cc3)[C@@H](Cc3ccc(OC(F)(F)F)cc3)[C@H](C)OC2=O)c1OCOC(C)=O [compound 66] | – | – | – | – | > 70% | > 70% | > 70% | > 70% | – | – |
| 56 to 61 °C | COc1ccnc(C(=O)N[C@H]2COC[C@H](Cc3ccccc3)[C@@H](COc3ccccc3)[C@H](C)OC2=O)c1OCOC(C)=O [compound 96] | – | – | – | – | > 70% | < 70% | > 70% | > 70% | – | – |
| 55 to 60 °C | COCCC(=O)Oc1c(OC)ccnc1C(=O)N[C@H]1COC[C@H](Cc2ccc(Cl)cc2)[C@@H](C2CCCC2)[C@H](C)OC1=O [compound 106, 2-(((3S,7R,8R,9S)-7-(4-chlorobenzyl)-8-cyclopentyl-9-methyl-2-oxo-1,5-dioxonan-3-yl)carbamoyl)-4-methoxypyridin-3-yl 3-methoxypropanoate] | – | – | – | – | > 70% | > 70% | > 70% | > 70% | – | – |
| 52 to 55 °C | CCOCC(=O)OCOc1c(OC)ccnc1C(=O)N[C@H]1COC[C@H](Cc2ccc(Cl)cc2)[C@@H](C2CCCC2)[C@H](C)OC1=O [compound 90, ((2-(((3S,7R,8R,9S)-7-(4-chlorobenzyl)-8-cyclopentyl-9-methyl-2-oxo-1,5-dioxonan-3-yl)carbamoyl)-4-methoxypyridin-3-yl)oxy)methyl 2-ethoxyacetate] | – | – | – | – | > 70% | < 70% | > 70% | > 70% | – | – |
| 69 to 75 °C | COc1ccnc(C(=O)N[C@H]2COC[C@H](CC3CCCCC3)[C@@H](CC3CCCCC3)[C@H](C)OC2=O)c1O [compound 119] | > 70% | > 70% | – | – | – | – | – | – | > 70% | < 70% |
| 66 to 71 °C | COc1ccnc(C(=O)N[C@H]2COC[C@H](Cc3ccc(C(F)(F)F)cc3)[C@@H](CC(C)C)[C@H](C)OC2=O)c1O [compound 141] | > 70% | > 70% | – | – | – | – | – | – | > 70% | > 70% |
| 42 to 48 °C | C=C[C@@H]1[C@@H](Cc2ccccc2)COC[C@H](NC(=O)c2nccc(OC)c2OCOC(C)=O)C(=O)O[C@H]1C [compound 9] | > 70% | > 70% | – | – | – | – | – | – | > 70% | > 70% |
| 56 to 60 °C | COc1ccnc(C(=O)N[C@H]2COC[C@H](Cc3ccc(Cl)cc3)[C@@H](C3CCCC3)[C@H](C)OC2=O)c1OCOC(C)=O [compound 88] | – | – | – | – | > 70% | < 70% | > 70% | < 70% | – | – |
| 38 to 43 °C | CCC[C@H]1COC[C@H](NC(=O)c2nccc(OC)c2OCOC(C)=O)C(=O)O[C@@H](C)[C@@H]1Cc1ccc(F)cc1 [compound 108] | – | – | – | – | > 70% | > 70% | > 70% | > 70% | – | – |
